Measurements from US20010047017A1, “Azole derivatives” (priority 2000, published 2001).
≈ marks a conversion by molar mass, not a printed value.

Experiments:
Assay in all cases: In vitro antifungal activity (IC80), broth micro-dilution
Format in all cases: cell-based
[1] = tested on: Absidia corymbifera (CF1001); conditions: Lichtheimia corymbifera; 80% inhibitory concentration; YNB medium solidified with 0.2% low melting point agarose; 1-2 days at 35° C.; read-out: In vitro antifungal activity (IC80) A. cormybifera (CF1001)
Protocol: (§1) In vitro antifungal activities of 1-(1H-1,2,4-triazol-1-yl)butan-2-ol derivatives of the formula (I) of the present invention were evaluated by determining the 80% inhibitory concentration (IC80), which was calculated as the lowest concentration of an antifungal to inhibit the growth of fungus to 20% turbidity compared with the drug-free control growth spectrophotometrically. The IC80 values were determined by the broth micro-dilution procedure based on NCCLS Approved Standard with the following minor modifications:
(§2) National Committee for Clinical Laboratory Standards. (1997) Reference method for broth dilution antifungal susceptibility testing for yeasts. Approved standard.
(§3) Yeast Nitrogen Base (YNB; Difco Lab.) supplemented with 1% glucose and 0.25% K2HPO4 was used as testing medium for yeast, the same medium solidified with 0.2% low melting point agarose (BRL) was used for filamentous fungi. Inoculum size was 1-3×10^4 cells/ml, and incubation was performed for 1-2 days at 35° C.
(§4) The inhibitory activity of 1-(1H-1,2,4-triazol-1-yl)butan-2-ol derivatives of the formula (I) against in vitro growth of Candida albicans, Aspergillus fumigatus, Rhizopus oryzea, and Absidia corymbifera is summarized in Table 1 comparing with 2-(2,4-difluorophenyl)-1,3-bis(1H-1,2,4-triazol-1-ylmethyl)propan-2-ol (Fluconazole; Pfizer).

[2] = tested on: Aspergillus fumigatus (437); conditions: 80% inhibitory concentration, YNB medium solidified with 0.2% low melting point agarose, 1-2 days at 35° C.
Protocol: as §1, §2, §3, §4

[3] = tested on: Candida albicans (CY1002); conditions: 80% inhibitory concentration, YNB medium with 1% glucose and 0.25% K2HPO4, 1-2 days at 35° C.
Protocol: as §1, §2, §3, §4

[4] = tested on: Rhizopus oryzea (CFF1118); conditions: 80% inhibitory concentration, YNB medium solidified with 0.2% low melting point agarose, 1-2 days at 35° C., read-out: In vitro antifungal activity (IC80) R. oryzea (CFF1118)
Protocol: as §1, §2, §3, §4

SMILES | IC80 [1] [µg/mL] | IC80 [2] [µg/mL] | IC80 [3] [µg/mL] | IC80 [4] [µg/mL]
Cc1csc(-c2ccc(-c3csc([C@H](C)[C@](O)(Cn4cncn4)c4ccc(F)cc4F)n3)cc2)n1 [Example 6, (2R,3R)-2-(2,4-Difluorophenyl)-3-{4-[4-(4-methylthiazol-2-yl)phenyl]thiazol-2-yl}-1-(1H-1,2,4-triazol-1-yl)butan-2-ol] | 0.33 (≈ 0.648 µM) | 0.67 (≈ 1.31 µM) | 0.021 (≈ 0.0412 µM) | 0.095 (≈ 0.186 µM)
C[C@@H](c1nc(-c2ccc(-c3csnn3)cc2)ns1)[C@](O)(Cn1cncn1)c1cc(F)ccc1F [Example 2, (2R,3R)-2-(2,5-Difluorophenyl)-3-{3-[4-(1,2,3-thiadiazol-4-yl)phenyl]-1,2,4-thiadiazol-5-yl}-1-(1H-1,2,4-triazol-1-yl)butan-2-ol] | 0.047 (≈ 0.0945 µM) | 0.036 (≈ 0.0724 µM) | 0.0014 (≈ 0.00281 µM) | 0.011 (≈ 0.0221 µM)
CCc1csc(-c2ccc(-c3csc([C@H](C)[C@](O)(Cn4cncn4)c4ccc(F)cc4F)n3)cc2)n1 [Example 7, (2R,3R)-2-(2,4-Difluorophenyl)-3-{4-[4-(4-ethylthiazol-2-yl)phenyl]thiazol-2-yl}-1-(1H-1,2,4-triazol-1-yl)butan-2-ol] | 0.34 (≈ 0.649 µM) | 0.39 (≈ 0.745 µM) | 0.024 (≈ 0.0458 µM) | 0.069 (≈ 0.132 µM)
C[C@@H](c1nc(-c2ccc(-c3nccs3)cc2)cs1)[C@](O)(Cn1cncn1)c1ccc(F)cc1F [Example 5, (2R,3R)-2-(2,4-Difluorophenyl)-3-{4-[4-(thiazol-2-yl)phenyl]thiazol-2-yl}-1-(1H-1,2,4-triazol-1-yl)butan-2-ol] | 0.3 (≈ 0.605 µM) | 0.35 (≈ 0.706 µM) | 0.0059 (≈ 0.0119 µM) | 0.0047 (≈ 0.00948 µM)
C[C@@H](c1nc(-c2ccc(-c3csnn3)cc2)cs1)[C@](O)(Cn1cncn1)c1ccc(F)cc1F [Example 3, (2R,3R)-2-(2,4-Difluorophenyl)-3-{4-[4-(1,2,3-thiadiazol-4-yl)phenyl]thiazol-2-yl}-1-(1H-1,2,4-triazol-1-yl)butan-2-ol] | 0.024 (≈ 0.0483 µM) | 0.14 (≈ 0.282 µM) | 0.011 (≈ 0.0222 µM) | 0.0029 (≈ 0.00584 µM)
C[C@@H](c1nc(-c2ccc(-c3csnn3)cc2)ns1)[C@](O)(Cn1cncn1)c1ccc(F)cc1F [Example 1, (2R,3R)-2-(2,4-Difluorophenyl)-3-{3-[4-(1,2,3-thiadiazol-4-yl)phenyl]-1,2,4-thiadiazol-5-yl}-1-(1H-1,2,4-triazol-1-yl)butan-2-ol] | 0.0057 (≈ 0.0115 µM) | 0.11 (≈ 0.221 µM) | 0.00093 (≈ 0.00187 µM) | 0.0023 (≈ 0.00462 µM)
CCOC(=O)c1csc(-c2ccc(-c3csc([C@H](C)[C@](O)(Cn4cncn4)c4ccc(F)cc4F)n3)cc2)n1 [Example 9, 2-(4-{2-[(1R,2R)-2-(2,4-Difluorophenyl)-2-hydroxy-1-methyl-3-(1H-1,2,4-triazol-1-yl)propyl]thiazol-4-yl}phenyl)thiazole-4-carboxylic acid ethyl ester] | 0.17 (≈ 0.299 µM) | 0.5 (≈ 0.881 µM) | 0.022 (≈ 0.0388 µM) | 0.036 (≈ 0.0634 µM)
CCc1nc(-c2ccc(-c3csc([C@H](C)[C@](O)(Cn4cncn4)c4ccc(F)cc4F)n3)cc2)ns1 [Example 19, (2R,3R)-2-(2,4-Difluorophenyl)-3-(4-{4-[5-ethyl-(1,2,4-thiadiazol-3-yl) ]phenyl}thiazol-2-yl)-1-(1H-1,2,4-triazol-1-yl)butan-2-ol] | 0.25 (≈ 0.477 µM) | 0.3 (≈ 0.572 µM) | 0.016 (≈ 0.0305 µM) | 0.044 (≈ 0.0839 µM)
Cc1nc(-c2ccc(-c3csc([C@H](C)[C@](O)(Cn4cncn4)c4ccc(F)cc4F)n3)cc2)ns1 [Example 18, (2R,3R)-2-(2,4-Difluorophenyl)-3-(4-{4-[5-methyl-(1,2,4-thiadiazol-3-yl)]phenyl}thiazol-2-yl)-1-(1H-1,2,4-triazol-1-yl)butan-2-ol] | 0.19 (≈ 0.372 µM) | 0.28 (≈ 0.548 µM) | 0.0031 (≈ 0.00607 µM) | 0.046 (≈ 0.0901 µM)
C[C@@H](c1nc(-c2ccc(-c3csnn3)cc2)cs1)[C@](O)(Cn1cncn1)c1cc(F)ccc1F [Example 4, (2R,3R)-2-(2,5-Difluorophenyl)-3-{4-[4-(1,2,3-thiadiazol-4-yl)phenyl]thiazol-2-yl}-1-(1H-1,2,4-triazol-1-yl)butan-2-ol] | 0.017 (≈ 0.0342 µM) | 0.17 (≈ 0.342 µM) | 0.011 (≈ 0.0222 µM) | 0.0028 (≈ 0.00564 µM)
